# What was measured:
# [1] = cited from earlier work
# [2] = design: method as in PMID 22532167; conditions: animal models; cited from earlier work
# [3] = Plasma pharmacokinetics of ARQ 501 (β-lapachone) after intravenous ARQ 761 (UHPLC-MS/MS, two-compartment model); assay type: in vivo, human; conditions: plasma ARQ 501 after ARQ 761 infusions
# Protocol: During the first and fourth infusions of study drug, serial blood samples for determination of plasma ARQ 501 levels were drawn at the following time points: pre-infusion, infusion start, 15 min, 30 min, 60 min, 120 min (for the 2-h infusion cohort), 15 min post-infusion, 1 h post-infusion, 3 h post-infusion, 5 h post-infusion, 24 h post-infusion, 48 h post-infusion, and 168 h post-infusion. ARQ 501 plasma concentrations were determined using an ultra-high-performance liquid chromatography tandem mass spectrometric analytical method. This method utilised a Nexera Series UHPLC system (Shimadzu Corporation, Kyoto, Japan), which was interfaced with a Sciex QTRAP 5500 mass spectrometer (Foster City, CA, USA).
# Sample preparation included a liquid–liquid extraction of ARQ 501 and the internal standard dihydrotanshone (IS) from plasma. Briefly, 100 µL of a 700 ng/mL solution of IS in methanol:acetonitrile (3:1) was added to a 2-mL Eppendorf tube and spun to dryness on a CentriVap benchtop vacuum concentrator (Labconco, Kansas City, USA). To the dried tube, 25-µL aliquots of plasma, 25-µL of blank plasma, and 200-µL de-ionised water were added and vortex mixed. To the resultant solution, a 1-mL aliquot of methyl tert-butyl ether:ethyl acetate (1:1) was added. The mixture was shaken for 10 min at 2500 rpm on a VWR shaker. Samples were then centrifuged for 10 min at 4000 rpm at 4.0 °C. […]
structure (smiles),measurement,setting,value
"CC1(C)CCC2=C(O1)c1ccccc1C(=O)C2=O [ARQ 501, β-lapachone]",Predominant dose-limiting toxicity (DLT),[1],haemolytic anaemia
same,MTD,"[1]; earlier ARQ 501 compound, no reference given",390 mg/m^2
same,Duration of methemoglobinaemia,[2],5 min
same,"Accumulation, Dose 1 vs. Dose 4",[3],does not accumulate to any appreciable extent
